The record followed here is US20140329854A1, “NOVEL HETEROCYCLIC COMPOUNDS USEFUL IN SIRTUIN BINDING AND MODULATION” (SMB Innovation, priority 2011, published 2014).

Data set [1] can be described thus: Solubility in DMSO stock solution. Particulars: solubility in DMSO before further dilution with water to 1% DMSO.
Data set [2] relates to CYP1A2, 2C9, 2C19, 2D6, and 3A4. The following applies: microsomes.
Data set [3] concerns the target T1, SIRT1 (Homo sapiens, UniProt Q96EB6).
T1 construct: purchased Cisbio Bioassays
T1 sequence (Q96EB6 1-747): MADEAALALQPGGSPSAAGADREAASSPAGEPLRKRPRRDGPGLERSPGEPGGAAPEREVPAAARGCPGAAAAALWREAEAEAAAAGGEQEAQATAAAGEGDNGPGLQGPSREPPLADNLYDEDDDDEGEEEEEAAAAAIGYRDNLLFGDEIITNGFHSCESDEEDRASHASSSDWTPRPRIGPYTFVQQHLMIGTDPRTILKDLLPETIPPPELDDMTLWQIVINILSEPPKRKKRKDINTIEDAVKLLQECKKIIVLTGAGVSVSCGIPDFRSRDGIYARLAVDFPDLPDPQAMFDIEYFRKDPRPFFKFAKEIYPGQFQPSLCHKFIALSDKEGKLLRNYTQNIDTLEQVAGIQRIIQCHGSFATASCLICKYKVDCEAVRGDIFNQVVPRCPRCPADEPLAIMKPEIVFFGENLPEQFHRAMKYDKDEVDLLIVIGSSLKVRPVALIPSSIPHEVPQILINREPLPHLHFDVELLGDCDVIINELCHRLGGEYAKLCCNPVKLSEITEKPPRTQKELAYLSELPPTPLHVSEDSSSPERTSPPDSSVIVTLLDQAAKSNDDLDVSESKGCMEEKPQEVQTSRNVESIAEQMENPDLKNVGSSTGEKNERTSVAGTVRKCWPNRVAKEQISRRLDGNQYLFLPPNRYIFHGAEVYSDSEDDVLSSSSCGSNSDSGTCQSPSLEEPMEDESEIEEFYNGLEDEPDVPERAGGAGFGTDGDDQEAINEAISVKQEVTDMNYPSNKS
Nature of the data set: CISBIO HTRF SIRT1 assay of SIRT1 peptide deacetylation, modified by excluding NAD+. Type of data set: biochemical. Particulars: for Modulation of SIRT1 deacetylating activity (in words): dose response, FIGS. 1-5. How it is done: Generally, the CISBIO HTRF® fluorescence enzyme titration assay (Cisbio Bioassays, Cisbio, 135 South Road, Bedford, Mass. 01730, USA) has provided information on inhibition and/or activation of SIRT1 deacetylation of a substrate peptide d2 containing a single acetylated lysine residue and a fluorescence probe/quencher. IC50 and AC50 values have been obtained. The assay was performed in microtiter wells and involved an enzymatic step, wherein 2 μL of the substrate peptide (6 nM) is incubated with 2 μL of SIRT1 enzyme (2.5 ng) and 2 μL of compound solution in DMSO and water. Reaction with anti-acetyl cryptate produces a FRET signal giving maximum signal when no SIRT1 reaction can be detected. The detection step involves quantification of the deacetylation process using an anti-acetyl MAb labeled with Eu^3+ cryptate. The assay was modified by excluding the NAD+ cofactor and using nicotinamide as inhibition control and the compound SRT1720 as activation control. SRT 1720 is described as a SIRT1 activating compound in Pillarisetti, S. (2008).
Protocol for inhibition/activation assay:
After adding all enzymatic step ingredients the mixture is incubated at room temperature at 30 to 60 min. Then the detection reactant is added and incubated at room temperature for 5 hours and on to produce a signal. The fluorescence readout is given as percentage of signal produced with no enzyme reaction.
The cryptate is excited at 337 nm and the fluorescence is measured at 590 nm (cryptate emission wavelength) and 665 nm (d2 emission wavelength). A ratio is calculated (665/590 nm) for each well.
The figures show percentage fluorescence as a function of Log C (log of compound concentration in μM).

The subject of data set [4] is rat hepatocytes. Description: Metabolic stability in rat hepatocytes. Particulars: for % Qh (rat): CLh as % of hepatic blood flow; for % Qh (rat) / rat CLh: rat Qh = 55 mL/min/kg; for rat CLh: hepatic clearance from CLint by well-stirred equation; for rat CLint: rat hepatocytes, hepatic intrinsic clearance. The data set is classed as in vitro ADME. The procedure:
(§1) Stability of the six compounds in the presence of a drug metabolizing system such as human and rat hepatocytes was measured. Data were reported from the CRO in the format of hepatic intrinsic clearance (CLint) in mL/min/kg. These CLint data were converted using the well-stirred equation
(§2) to a whole body clearance (CLh, hepatic clearance), which is more directly physiologically interpreted (Qh, hepatic blood flow rate, mL/min/kg).

Data set [5] relates to human hepatocytes. Nature of the data set: Metabolic stability in human hepatocytes. Particulars: for % Qh (human): CLh as % of hepatic blood flow; for % Qh (human) / hu CLh: human Qh = 21 mL/min/kg; for hu CLh: hepatic clearance from CLint by well-stirred equation; for hu CLint: human hepatocytes, hepatic intrinsic clearance. Type of data set: in vitro ADME. How it is done:
as §1, §2

In data set [6] the test system is CYP1A2, CYP2C9, CYP2C19, CYP2D6, CYP3A4. Nature of the data set: CYP inhibition in human liver microsomes. (Microsomes from liver hold many membrane-bound enzymes, among them those of drug oxidation.)
Data set [7] deals with MDCK-MDR1 cells. The source says:
MDR1 is the nomenclature for the major efflux transporter P-glycoprotein (P-gp), which is expressed at important anatomical barriers such as blood-brain, small intestine, and tumor cells. The MDCK-MDR model is a polarized cell model over expressing P-gp (i.e. P-gp is expressed on the Apical, or gut lumen, side of the cell) that is capable of actively effluxing small molecule substrates in the B to A direction. […] The compounds were run bidirectionally (Compound added to apical side and flux measured of compound appearing on the basolateral, or blood, side; compound added on basolateral side and flux of compound to apical side measured).

Data set [8] is described as follows: Measured partition coefficients (MlogD7.4, logP11). The data set is classed as physicochemical. The following applies: measured partition coefficient at pH 7.4. How it is done: Physical properties tPSA and ClogP (calculated lipophilicity octanol/water) were calculated using ChemDraw. Additionally, M log D7.4 (measured partition coefficient at pH 7.4) and log P11 (measured partition coefficient at pH 11) were measured, and all data are shown in Table 7.

The subject of data set [9] is human and rat hepatocytes. Nature of the data set: Stability in cryopreserved hepatocytes (FIG. 7), verbal summary. The data set is classed as in vitro ADME. The following applies: 90 minutes. How it is done:
as §1

The mark [10] stands for this setting: average AC50 values, n = 6, read-out: AC50.
The mark [11] stands for this setting: SIRT1 activation, no NAD+ cofactor, average n = 3, read-out: AC50 in μM, average, n = 3.
Where [12] appears, read: SIRT1 activation, no NAD+ cofactor, single experiment of FIGS. 1-4, read-out: AC50 in μM, n = 1.

One may read the IC50 as the point on the concentration scale where inhibition reaches its midpoint. The AC50 is the concentration at which the activity in the assay is half-maximal.

Like-named read-outs stand apart in the source and are kept apart here.

In the case of `NC(=O)c1cc(C(=O)Nc2ccc(O)cc2)c[nH]1` [Compound 16, 4-N(4-hydroxyphenyl)pyrrol-2,4-dicarboxamide], the “Concentration of compound in DMSO stock solution” value (“Concentration of compound” below) in data set [1] came out at 200000 µM.

For the compound `COc1cccc(NC(=O)c2ccc(C(N)=O)cn2)c1O` [Compound 24, 2-N(2-hydroxy-3-methoxy-phenyl)pyridine-2,5-dicarboxamide], the 50% inhibitory concentration (IC50) in data set [2] is > 5 µM.

Turning to `NC(=O)c1ccc(C(=O)Nc2cc(Cl)ccc2O)nc1` [Compound 23, 2-N(2-hydroxy-5-chloro-phenyl)pyridine-2,5-dicarboxamide], the half-maximal activity concentration (AC50) in data set [3] (setting [10]) is > 200 µM.

Consider `NC(=O)c1ccc(C(=O)Nc2ccc(O)c3ccccc23)nc1` [Compound 4, 2-N(4-hydroxy-1-naphthyl)pyridine-2,5-dicarboxamide], for which, in data set [1], the “Concentration of compound” value was 20000 µM.

Regarding `NC(=O)c1ccc2cc(C(=O)Nc3ccccc3O)ccc2n1` [Compound 15, 6-N(2-hydroxyphenyl)quinolin-2,6-dicarboxamide], the “Concentration of compound” value in data set [1] worked out at 10000 µM.

For `CCOc1ccc2ccc(=O)oc2c1` [Compound 7EC, reference compound], in data set [4], the “% Qh (rat)” value is listed as 66.0%, the “rat CLh” value stood at 2.18 L/h/kg and the “rat CLint” value amounted to 6.42 L/h/kg. Moreover, in data set [5], the “% Qh (human)” value was 82.5%, the “hu CLh” value was 1.04 L/h/kg and the “hu CLint” value worked out at 5.94 L/h/kg.

As to `NC(=O)c1ccc(C(=O)Nc2ccccc2O)nc1` [Compound 2, 2-N(2-hydroxyphenyl)pyridine-2,5-dicarboxamide], the figures for the AC50 in data set [3] (setting [11]) and in data set [3] (setting [12]) were 348 µM and 316 µM, respectively. Further, the “Modulation of SIRT1 deacetylating activity (in words)” value (shortened to “Modulation”) in data set [3] is “clear activation”. For the same compound, the “Concentration of compound” value in data set [1] stood at 200000 µM.

Take `NC(=O)c1ccc(C(=O)Nc2cccc3c(O)cccc23)nc1` [Compound 5, 2-N(5-hydroxy-1-naphthyl)pyridine-2,5-dicarboxamide]: the “Concentration of compound” value in [1] stood at 20000 µM.

`NC(=O)c1ccc(C(=O)Nc2c(O)ccc3cc(Cl)ccc23)nc1` [Compound 29, 2-N(2-hydroxy-6-chloro-1-naphthyl)pyridine-2,5-dicarboxamide]: the AC50 in [3] (setting [10]) was found to be 113 µM. For the same compound, in data set [6], the half-inhibitory concentration (IC50) is > 5 µM.

For `NC(=O)c1ccc(C(=O)Nc2cc3ccccc3cc2O)nc1` [Compound 18, 2-N(3-hydroxy-2-naphthyl)pyridine-2,5-dicarboxamide], the AC50 in [3] (setting [10]) amounted to 116 µM.

Regarding `COc1cc2ccccc2c(NC(=O)c2ccc(C(N)=O)cn2)c1O` [Compound 28, 2-N(2-hydroxy-3-methoxy-1-naphthyl)pyridine-2,5-dicarboxamide], the AC50 in data set [3] (setting [10]) amounted to 175 µM.

For the compound `NC(=O)c1ccc(C(=O)Nc2ccc(O)cc2O)cn1` [Compound 9, 5-N(2,4-dihydroxyphenyl)pyridine-2,5-dicarboxamide], in [4], the “% Qh (rat)” value was found to be 21.4%, the “rat CLh” value was determined as 0.708 L/h/kg and the “rat CLint” value was determined as 0.9 L/h/kg. The AC50 in data set [3] (setting [12]) was 112 µM. Further, the “Modulation” value in data set [3] is listed as “clear activation”. In addition, the “Concentration of compound” value in data set [1] worked out at 200000 µM. In addition, in [7], the “Cell permeability (in words)” value is given as “moderate cell permeability” and the “P-gp mediated efflux (in words)” value is reported as “no P-gp mediated efflux”. The compound further displayed a MlogD7.4 in data set [8] of 0.3. The IC50 in [2] is > 5 µM. For the same compound, in [5], the “% Qh (human)” value worked out at 36.4%, the “hu CLh” value worked out at 0.456 L/h/kg and the “hu CLint” value came to 0.72 L/h/kg. Also, in [9], the “Clearance in hepatocytes (in words)” value is “relatively low clearance” and the “Stability in hepatocytes (in words)” value was “good stability”.

For `NC(=O)c1ccc(C(=O)Nc2cccc3cc(O)ccc23)cn1` [Compound 12, 5-N(6-hydroxy-1-naphthyl)pyridine-2,5-dicarboxamide], in data set [1], the “Concentration of compound” value is 20000 µM.

On to `NC(=O)c1ccc2cc(C(=O)Nc3ccc(O)cc3)ccc2n1` [Compound 14, 6-N(4-hydroxyphenyl)quinolin-2,6-dicarboxamide], for which, in [1], the “Concentration of compound” value is 200000 µM.

Consider `NC(=O)c1ccc(C(=O)Nc2cccc3c(O)cccc23)cn1` [Compound 10, 5-N(5-hydroxy-1-naphthyl)pyridine-2,5-dicarboxamide], for which the “Concentration of compound” value in [1] came to 20000 µM.

In the case of `NC(=O)c1cc(C(=O)Nc2ccccc2O)c[nH]1` [Compound 17, 4-N(2-hydroxyphenyl)pyrrol-2,4-dicarboxamide], inhibition in data set [3] (SIRT1 inhibition, no NAD+ cofactor, n = 1, FIG. 5) was half-maximal at 0.5 µM (IC50). In [3], the “Modulation” value is “clear inhibition”. Besides, the “Concentration of compound” value in data set [1] is 200000 µM.

Turning to `NC(=O)c1ccc(C(=O)Nc2ccc3ccccc3c2O)nc1` [Compound 19, 2-N(1-hydroxy-2-naphthyl)pyridine-2,5-dicarboxamide], the half-maximal activity concentration (AC50) in [3] (setting [10]) came to 31.6 µM. The 50% inhibitory concentration (IC50) in data set [6] is > 5 µM.

As to `NC(=O)c1cccc(C(=O)Nc2ccc(O)cc2O)n1` [Compound 13, 2-N(2,4-dihydroxyphenyl)pyridine-2,6-dicarboxamide], the AC50 is 647 µM in data set [3] (setting [11]) and 105 µM in data set [3] (setting [12]). The “Modulation” value in data set [3] is “clear activation”. The “Concentration of compound” value in [1] was found to be 20000 µM.

`NC(=O)c1ccc(C(=O)Nc2cccc3cc(O)ccc23)nc1` [Compound 6, 2-N(6-hydroxy-1-naphthyl)pyridine-2,5-dicarboxamide]: in data set [1], the “Concentration of compound” value worked out at 100000 µM.
